Patent US6362190B1, “Method for treating inflammatory diseases by administering a thrombin inhibitor” (Merck & Co., Inc., priority 1998, dated 2002)

Test system: adjuvant-induced arthritis (Mycobacterium butyricum) in female Lewis rats
Experiment: Development and severity of adjuvant-induced arthritis in female Lewis rats (paw volumes, radiographic scores)
Format: in vivo
Settings: for Radiographic total scores of secondary paws compared with vehicle treated rats, in words: day 21, secondary paws; for Radiographic scores, Primary paws / Radiographic scores, Secondary paws / Increase in primary foot volume, Day 21 / Increase in secondary foot volume, Day 21: day 21; for Radiographic scores, Primary paws / Radiographic scores, Secondary paws: total score, maximum 26 per foot, high score = high inflammation, thrombin inhibitor 50 mg/kg/day, Indomethacin 1 mg/kg/day oral; for Increase in primary foot volume, Day 14 / Increase in primary foot volume, Day 21: primary (adjuvant-injected) paw; for Increase in primary foot volume, Day 14 / Increase in primary foot volume, Day 21 / Increase in secondary foot volume, Day 14 / Increase in secondary foot volume, Day 21: oral gavage daily, thrombin inhibitor 50 mg/kg, Indomethacin 1 mg/kg; for Increase in primary foot volume, Day 14: mercury displacement plethysmography; for Increase in secondary foot volume, Day 14 / Increase in secondary foot volume, Day 21: secondary (contralateral, not injected) paw
Protocol: The thrombin inhibitor 3-(2-phenylethylamino)-6-methyl-1-(2-amino-6-methyl-5-methylene-carboxamidomethylpyridinyl)-2-pyrazinone was evaluated to determine its effect on induced arthritis. Arthritis was induced by injection of female Lewis rats with Mycobacterium butyricum. The effect of the thrombin inhibitor was compared with the effect of Indomethacin and the effect of a vehicle control.
Fifty 7.5 week old female Lewis rats (body weight 149-174 grams) were included in the study. Forty rats were each injected with an emulsion containing 0.5 mg of Mycobacterium butyricum in 0.1 ml of light mineral oil, and a negative control group of 10 rats was not injected with adjuvant.
Ten of the rats receiving Mycobacterium butyricum further received Indomethacin by oral gavage at a total daily dose of 1 mg/kg. Ten of the rats receiving Mycobacterium butyricum further received the thrombin inhibitor by oral gavage at a total daily dose of 50 mg/kg. Twenty of the rats receiving Mycobacterium butyricum further received a vehicle control of sterile distilled water.
Body weights, primary and secondary paw volumes, and lateral radiographs were determined before and at various time points including 21 days following adjuvant injection. The primary paw was injected with the Mycobacterium butyricum while the secondary (contralateral) paw was not injected. Paw volumes were determined by mercury displacement plethysmography. Lateral radiographs were obtained under Ketamine and Xylazine anesthesia.
Radiographs were made of both hind paws on days 0 and 21 and evaluated for changes in the soft and hard tissues. The following radiographic changes were graded numerically according to severity:increased soft tissue volume (0-4), narrowing or widening of joint spaces ([…]), subchondral erosion (0-3), periosteal reaction (0-4), osteolysis (0-4), subluxation (0-3), and degenerative joint changes (0-3). The maximum possible score for each foot was 26. High scores correspond with high levels of inflammation.

SMILES	Radiographic total scores of secondary paws compared with vehicle treated rats, in words (versus vehicle)	Radiographic scores, Primary paws	Radiographic scores, Secondary paws	Increase in primary foot volume, Day 14 [µL]	Increase in primary foot volume, Day 21 [µL]	Effect on the primary paw (foot volume), in words (primary paw, thrombin inhibitor 50 mg/kg/day oral gavage)	Increase in secondary foot volume, Day 14 [µL]	Increase in secondary foot volume, Day 21 [µL]	Anti-inflammatory effect on the secondary paw (foot volume), in words (secondary paw, thrombin inhibitor 50 mg/kg/day oral gavage)	Radiographic total scores of primary paws compared with vehicle treated rats, in words (day 21, primary paws, versus vehicle)
Cc1nc(N)ccc1CNC(=O)Cn1c(C)cnc(NCCc2ccccc2)c1=O [Thrombin inhibitor, 3-(2-phenylethylamino)-6-methyl-1-(2-amino-6-methyl-5-methylene-carboxamidomethylpyridinyl)-2-pyrazinone]	significantly less	14.0 ± 3.3	3.8 ± 3.79	1591 ± 318	1997 ± 605	insignificant effect	382 ± 312	704 ± 289	significant anti-inflammatory effect	–
COc1ccc2c(c1)c(CC(=O)O)c(C)n2C(=O)c1ccc(Cl)cc1 [Indomethacin, reference compound]	significantly less	4.6 ± 1.6	3.5 ± 1.4	726 ± 174	622 ± 156	–	246 ± 162	253 ± 138	–	significantly less
